Experimental data from ChEMBL document CHEMBL1649485, “High prevalence of qnr genes in commensal enterobacteria from healthy children in Peru and Bolivia” (2009).
In brackets after ≈: the same amount, converted by molar mass.

Experiments:
Klebsiella pneumoniae [1] = assay: microbe, parasite or virus in culture; details: isolate M2
Description: Antimicrobial activity against Klebsiella pneumoniae isolate M2 harboring qnrS1 gene by agar dilution method

Klebsiella pneumoniae [2] = assay: Antimicrobial activity against Klebsiella pneumoniae isolate M1 harboring qnrB19 gene by agar dilution method; assay type: functional
Klebsiella oxytoca [3] = assay: Antimicrobial activity against Klebsiella oxytoca isolate M2 harboring qnrS1 gene by agar dilution method; assay type: functional
Klebsiella pneumoniae [4] = assay: Antimicrobial activity against Klebsiella pneumoniae isolate Y1 harboring qnrB19 gene by agar dilution method; assay type: functional
Klebsiella pneumoniae [5] = assay: Antimicrobial activity against Klebsiella pneumoniae isolate C2 harboring qnrS1 gene by agar dilution method; assay type: functional
Enterobacter cloacae [6] = assay: Antimicrobial activity against Enterobacter cloacae clinical isolate assessed as resistant isolate; assay type: functional
Escherichia hermannii [7] = assay: Antimicrobial activity against Escherichia hermannii clinical isolate assessed as resistant isolate; assay type: functional, Atlantibacter hermannii
Klebsiella pneumoniae [8] = assay: Antimicrobial activity against Klebsiella pneumoniae isolate Y2 harboring qnrS1 gene by agar dilution method; assay type: functional
Escherichia hermannii [9] = assay: Antimicrobial activity against Escherichia hermannii clinical isolate by agar dilution method; assay type: functional; details: Atlantibacter hermannii
Escherichia coli [10] = assay: Antimicrobial activity against qnrB-positive Escherichia coli clinical isolate assessed as resistant isolate; assay type: functional
Citrobacter freundii [11] = assay: Antimicrobial activity against Citrobacter freundii clinical isolate assessed as resistant isolate; assay type: functional
Escherichia coli [12] = assay: Antimicrobial activity against qnrB/S-positive Escherichia coli clinical isolate assessed as susceptible isolate; assay type: functional
Klebsiella pneumoniae [13] = assay: Antimicrobial activity against Klebsiella pneumoniae isolate V2 harboring qnrS1 gene by agar dilution method; assay type: functional
Escherichia coli [14] = assay: Antimicrobial activity against Escherichia coli isolate M3 harboring qnrS1 gene by agar dilution method; assay type: functional
Klebsiella oxytoca [15] = assay: Antimicrobial activity against Klebsiella oxytoca isolate M1 harboring qnrB19 gene by agar dilution method; assay type: functional
Klebsiella pneumoniae [16] = assay: Antimicrobial activity against qnrB-positive Klebsiella pneumoniae clinical isolate assessed as resistant isolate; assay type: functional
Escherichia hermannii [17] = assay: Antimicrobial activity against Escherichia hermannii isolate C1 harboring qnrB19 gene by agar dilution method; assay type: functional; details: Atlantibacter hermannii
Klebsiella oxytoca [18] = assay: Antimicrobial activity against Klebsiella oxytoca clinical isolate assessed as susceptible isolate; assay type: functional; details: pooled result: one value given for 4 cell lines, strains, targets or settings
Klebsiella pneumoniae [19] = assay: Antimicrobial activity against qnrB-positive Klebsiella pneumoniae clinical isolate assessed as susceptible isolate; assay type: functional
Enterobacter cloacae [20] = assay: Antimicrobial activity against Enterobacter cloacae clinical isolate by agar dilution method; assay type: functional
Citrobacter freundii [21] = assay: Antimicrobial activity against Citrobacter freundii clinical isolate by agar dilution method; assay type: functional
Citrobacter freundii [22] = assay: Antimicrobial activity against Citrobacter freundii isolate V1 harboring qnrB10 gene by agar dilution method; assay type: functional
Escherichia coli [23] = assay: Antimicrobial activity against qnrS-positive Escherichia coli clinical isolate assessed as susceptible isolate; assay type: functional
Klebsiella pneumoniae [24] = assay: Antimicrobial activity against qnrS-positive Klebsiella pneumoniae clinical isolate assessed as resistant isolate; assay type: functional
Escherichia coli [25] = assay: Antimicrobial activity against qnrS-positive Escherichia coli clinical isolate assessed as resistant isolate; assay type: functional
Enterobacter cloacae [26] = assay: Antimicrobial activity against Enterobacter cloacae isolate V1 harboring qnrB2 gene by agar dilution method; assay type: functional
Escherichia coli [27] = assay: Antimicrobial activity against qnrB-positive Escherichia coli clinical isolate assessed as susceptible isolate; assay type: functional
Klebsiella pneumoniae [28] = assay: Antimicrobial activity against qnrS-positive Klebsiella pneumoniae clinical isolate assessed as susceptible isolate; assay type: functional
Klebsiella oxytoca [29] = assay: Antimicrobial activity against Klebsiella oxytoca clinical isolate assessed as resistant isolate; assay type: functional
Klebsiella oxytoca [30] = assay: Antimicrobial activity against Klebsiella oxytoca clinical isolate by agar dilution method; assay type: functional
Escherichia coli [31] = assay: Antimicrobial activity against qnrB/S-positive Escherichia coli clinical isolate assessed as resistant isolate; assay type: functional
Escherichia coli [32] = assay: Antimicrobial activity against qnrB-positive Escherichia coli clinical isolate by agar dilution method; assay type: functional
Klebsiella pneumoniae [33] = assay: Antimicrobial activity against qnrB-positive Klebsiella pneumoniae clinical isolate by agar dilution method; assay type: functional
Klebsiella pneumoniae [34] = assay: microbe, parasite or virus in culture; details: isolate V1
Description: Antimicrobial activity against Klebsiella pneumoniae isolate V1 harboring qnrB2 gene by agar dilution method

Escherichia coli [35] = assay: Antimicrobial activity against Escherichia coli isolate V1 harboring qnrB19 gene by agar dilution method; assay type: functional
Escherichia coli [36] = assay: Antimicrobial activity against qnrB/S-positive Escherichia coli clinical isolate by agar dilution method; assay type: functional
Escherichia coli [37] = assay: Antimicrobial activity against Escherichia coli isolate M1 harboring qnrB19 gene by agar dilution method; assay type: functional
Escherichia coli [38] = assay: Antimicrobial activity against Escherichia coli isolate M2 harboring qnrS1 gene by agar dilution method; assay type: functional
Klebsiella pneumoniae [39] = assay: Antimicrobial activity against qnrS-positive Klebsiella pneumoniae clinical isolate by agar dilution method; assay type: functional
Escherichia coli [40] = assay: Antimicrobial activity against Escherichia coli isolate C1 harboring qnrB19 gene by agar dilution method; assay type: functional
Escherichia coli [41] = assay: Antimicrobial activity against Escherichia coli isolate Y2 harboring qnrS1 gene by agar dilution method; assay type: functional
Escherichia coli [42] = assay: Antimicrobial activity against Escherichia coli isolate Y1 harboring qnrB19 gene by agar dilution method; assay type: functional
Escherichia coli [43] = assay: Antimicrobial activity against Escherichia coli isolate Y3 harboring qnrS1 gene by agar dilution method; assay type: functional
Escherichia coli [44] = assay: Antimicrobial activity against qnrS-positive Escherichia coli clinical isolate by agar dilution method; assay type: functional

In the case of `O=C(O)c1cn(C2CC2)c2cc(N3CCNCC3)c(F)cc2c1=O` [CIPROFLOXACIN], the MIC (Klebsiella pneumoniae [1]) is reported as 4 µg/mL (≈ 12.1 µM), the MIC (Klebsiella pneumoniae [2]) is reported as 2 µg/mL (≈ 6.04 µM) and the MIC (Klebsiella oxytoca [3]) is reported as 4 µg/mL (≈ 12.1 µM). The MIC (Klebsiella pneumoniae [4]) was 2 µg/mL (≈ 6.04 µM) and the MIC (Klebsiella pneumoniae [5]) was 2 µg/mL (≈ 6.04 µM).
With `C[C@H]1COc2c(N3CCN(C)CC3)c(F)cc3c(=O)c(C(=O)O)cn1c23.C[C@H]1COc2c(N3CCN(C)CC3)c(F)cc3c(=O)c(C(=O)O)cn1c23.O` [LEVOFLOXACIN] the Activity (Enterobacter cloacae [6]) was 0%, the Activity (Escherichia hermannii [7]) was 0% and the MIC (Klebsiella pneumoniae [8]) was 2 µg/mL. The MIC (Escherichia hermannii [9]) was 0.25 µg/mL, the MIC (Klebsiella pneumoniae [2]) was 2 µg/mL and the Activity (Escherichia coli [10]) was 4%. The Activity (Citrobacter freundii [11]) was 0%, the Activity (Escherichia coli [12]) was 100% and the MIC (Klebsiella pneumoniae [13]) was 2 µg/mL. It also gave an MIC (Escherichia coli [14]) of 2 µg/mL, an MIC (Klebsiella oxytoca [15]) of 0.5 µg/mL and an Activity (Klebsiella pneumoniae [16]) of 0%. It also gave an MIC (Escherichia hermannii [17]) of 0.25 µg/mL, an Activity (Klebsiella oxytoca [18]) of 71% and an Activity (Klebsiella pneumoniae [19]) of 100%. The MIC (Klebsiella oxytoca [3]) was 4 µg/mL, the MIC (Enterobacter cloacae [20]) was 0.25 µg/mL and the MIC (Citrobacter freundii [21]) was 0.25 µg/mL. The MIC (Citrobacter freundii [22]) was 0.5 µg/mL, the Activity (Escherichia coli [23]) was 100% and the Activity (Klebsiella pneumoniae [24]) was 13%. The Activity (Escherichia coli [25]) was 0%, the MIC (Enterobacter cloacae [26]) was 2 µg/mL and the Activity (Escherichia coli [27]) was 79%. It also gave an Activity (Klebsiella pneumoniae [28]) of 87%, an Activity (Klebsiella oxytoca [29]) of 0% and an MIC (Klebsiella pneumoniae [5]) of 2 µg/mL. For the same compound, the MIC (Klebsiella oxytoca [30]) was 0.25 µg/mL, the Activity (Escherichia coli [31]) was 0% and the MIC50 (Escherichia coli [32]) was 1 µg/mL. The MIC90 (Escherichia coli [32]) was 4 µg/mL.
With `CCn1cc(C(=O)O)c(=O)c2ccc(C)nc21` [NALIDIXIC ACID] the Activity (Enterobacter cloacae [6]) was 57%, the MIC (Klebsiella pneumoniae [33]) was 16 µg/mL (≈ 68.9 µM) and the MIC (Klebsiella pneumoniae [1]) was 32 µg/mL (≈ 138 µM). The Activity (Escherichia hermannii [7]) was 57%, the MIC (Klebsiella pneumoniae [8]) was 32 µg/mL (≈ 138 µM) and the MIC (Escherichia hermannii [9]) was 16 µg/mL (≈ 68.9 µM). It also gave an MIC (Klebsiella pneumoniae [34]) of 32 µg/mL (≈ 138 µM), an MIC (Escherichia coli [35]) of 32 µg/mL (≈ 138 µM) and an MIC (Klebsiella pneumoniae [2]) of 32 µg/mL (≈ 138 µM). For the same compound, the MIC (Escherichia coli [36]) was 16 µg/mL (≈ 68.9 µM), the Activity (Escherichia coli [10]) was 87% and the MIC (Escherichia coli [37]) was 16 µg/mL (≈ 68.9 µM). The Activity (Citrobacter freundii [11]) was 57%, the Activity (Escherichia coli [12]) was 50% and the MIC (Klebsiella pneumoniae [13]) was 16 µg/mL (≈ 68.9 µM). It also gave an MIC (Escherichia coli [14]) of 32 µg/mL (≈ 138 µM), an MIC (Klebsiella oxytoca [15]) of 16 µg/mL (≈ 68.9 µM) and an Activity (Klebsiella pneumoniae [16]) of 80%. The MIC (Escherichia hermannii [17]) was 32 µg/mL (≈ 138 µM), the Activity (Klebsiella oxytoca [18]) was 43% and the Activity (Klebsiella pneumoniae [19]) was 20%. It also gave an MIC (Escherichia coli [38]) of 16 µg/mL (≈ 68.9 µM), an MIC (Klebsiella pneumoniae [39]) of 16 µg/mL (≈ 68.9 µM) and an MIC (Klebsiella oxytoca [3]) of over 128 µg/mL. It also gave an MIC (Enterobacter cloacae [20]) of 16 µg/mL (≈ 68.9 µM), an MIC (Citrobacter freundii [21]) of 16 µg/mL (≈ 68.9 µM) and an MIC (Citrobacter freundii [22]) of 16 µg/mL (≈ 68.9 µM). The Activity (Escherichia coli [23]) was 100%, the Activity (Klebsiella pneumoniae [24]) was 87% and the Activity (Escherichia coli [25]) was 0%. For the same compound, the MIC (Enterobacter cloacae [26]) was 32 µg/mL (≈ 138 µM), the Activity (Escherichia coli [27]) was 13% and the Activity (Klebsiella pneumoniae [28]) was 13%. The MIC (Klebsiella pneumoniae [4]) was 64 µg/mL (≈ 276 µM), the Activity (Klebsiella oxytoca [29]) was 57% and the MIC (Klebsiella pneumoniae [5]) was 32 µg/mL (≈ 138 µM). It also gave an MIC (Escherichia coli [40]) of 32 µg/mL (≈ 138 µM), an MIC (Escherichia coli [41]) of 16 µg/mL (≈ 68.9 µM) and an MIC (Escherichia coli [42]) of 32 µg/mL (≈ 138 µM). It also gave an MIC (Klebsiella oxytoca [30]) of 16 µg/mL (≈ 68.9 µM), an Activity (Escherichia coli [31]) of 50% and an MIC50 (Escherichia coli [32]) of 32 µg/mL (≈ 138 µM). It also gave an MIC90 (Escherichia coli [32]) of over 128 µg/mL, an MIC (Escherichia coli [43]) of 16 µg/mL (≈ 68.9 µM) and an MIC (Escherichia coli [44]) of 16 µg/mL (≈ 68.9 µM).
